Experimental data published in patent US9695217B2, “Peptide domains that bind small molecules” (Iowa State University Research Foundation, Inc., priority 2010, dated 2017).
Like-named read-outs stand apart in the source and are kept apart here.

What was measured:
[1] = Binding strength measured by surface plasmon resonance (BIACOR 3000, Sensor Chip NTA); conditions: read-out: Kd (dissociation constant for nickel), SPR
[2] = known polyhistidine binding domain, background statement; read-out: molar dissociation constant for nickel; cited from earlier work

Kd [1]: ~23 pM
Sequence: YSHHHHHHLAGTA [C26]
Kd [2]: 23 pM
